Test results published in US20240360145A1, “PYRIMIDINE-2,4-DIAMINE DERIVATIVES AS WELL AS PREPARATION METHOD THEREFOR AND USE THEREOF” (LISEN THERAPEUTICS, INC., priority 2022, published 2024).
Where a name gives a salt, the structure may show the parent alone. Read-outs that look alike come from different tables or passages of the source.

Legend:
PE052 primary cells = assay: Cell viability IC50 (CCK-8), primary cells PE052 from small cell lung cancer pleural effusion; assay type: cell-based; conditions: PE052, CCK-8
Protocol: (§1) (1) The pleural effusion was poured into a 15 mL or 50 mL of sterilized centrifuge tube for centrifugation. Centrifugation conditions: 800 to 1000 rpm, 5 min.
(§2) (2) The precipitate was resuspended and washed for 2 to 3 times with PBS.
(§3) (3) The cell precipitate was resuspended with complete culture medium (α-MEM medium containing 10% fetal bovine serum and 2% penicillin-streptomycin), and the flocculent matter in the pleural effusion was removed using a sterilized cell sieve.
(§4) (4) The red blood cells in the pleural effusion were removed with lymphocyte separation fluid, and the tumor cells and lymphocyte components were collected. The number of tumor cells was observed under a microscope, and the cells were inoculated.
(§5) (5) After 24 hours, the supernatant was discarded, and fresh culture medium was added for further culture.
(§6) (6) The cell growth status was observed, and it was determined based on the cell status whether the medium was required to be continuously changed to remove blood cells. When the cells grew to a density of 80% to 90%, the cells were preserved.
(§7) (1) Primary cells from lung cancer pleural effusion within 5 generations were cultured to the logarithmic growth phase. […] After centrifugation at room temperature, the supernatant was discarded, and the cell precipitate was resuspended with fresh complete culture medium. After counting, the cells were placed at room temperature for later use. The cells were inoculated into a 384-well plate at a density of 2000 cells/well with a volume of 40 μl/well. The wells at the outermost circle of the plate were not inoculated with cells, and instead, added with sterile water to reduce evaporation of the culture medium.
(§8) (2) After overnight culture of the cells, the medium was discarded, and a fresh medium containing different concentrations of compounds was added at 200 μl/well. The dilution method of the compound was as follows: first the compound with the highest concentration of 10 μM was prepared, and then the compound was diluted for 3 times in sequence. […] At the same time, a blank control group was set up, in which only an equal volume of culture medium was added without adding cells. Five replicate wells were set up for each group. The cells were placed in the incubator for further culture.
(§9) (3) After 72 hours, 8 μl of CCK-8 solution, which was double-diluted with 10 mM PBS, was added to each well, and the cells were shaken and placed in an incubator at 37° C. for further culture for 2 hours.
(§10) (4) The light absorbance value at 450 nm was read using a microplate reader, and the IC50 was calculated according to the absorbance value. The calculation method was the same as above.
(§11) (1) Sample information: PE039, PE052, and PE062 were all primary cell samples from pleural effusion of patients with small cell lung cancer, and LT015 was a primary cell sample from bronchoscopic biopsy of a patient with small cell lung cancer.
(§12) (2) CCK-8 detection was used to detect the IC50 values of different medicaments (compounds).

PE062 primary cells = assay: Cell viability IC50 (CCK-8), primary cells PE062 from small cell lung cancer pleural effusion; assay type: cell-based; conditions: PE062, CCK-8
Protocol: as §1, §2, §3, §4, §5, §6, §7, §8, §9, §10, §11, §12

LT015 primary cells = assay: Cell viability IC50 (CCK-8), primary cells LT015 from small cell lung cancer bronchoscopic biopsy; assay type: cell-based; conditions: LT015, CCK-8
Protocol: (1) The tissue blocks obtained from the tumor patients were transferred from the preservation solution to the pre-cooled HBSS buffer containing antibiotics, and the tissue blocks were washed for three times with the pre-cooled HBSS buffer.
(2) Tissue was sheared on ice with sterile surgical instruments until no obvious tissue blocks are visible to the naked eye, the tissue fluid was collected into a 15 ml centrifuge tube, and this process takes about 5 to 10 minutes.
(3) Digestive enzymes (collagenase I, collagenase IV and neutral protease being mixed in a ratio of 1:1:1, a concentration of stock solution was 10 mg/ml, diluted with PBS buffer or HBSS buffer, and the use concentration was 1 mg/ml) were added to the centrifuge tube, and after mixing well by pipetting, the centrifuge tube was placed in a 37° C. constant temperature incubator for 1 to 2 hours.
(4) High-glucose medium was added to the centrifuge tube to stop digestion. After mixing well, the cell precipitate was collected by centrifugation, and resuspended with MBM medium (Advanced DMEM-F12+20 ng/ml bFGF+50 ng/ml EGF+1% ITS-X+2% B27+10 μMY-27632+1% PS). The cell suspension was placed in a Matrigel-coated 24-well plate and cultured for 5 to 7 days. When the cell density in the well plate reaches 80-90%, the cells were sub-cultured into a 6 cm cell culture dish, and when they grew to a density of 80% to 90%, the cells were cryopreserved for preservation.
(1) Primary cells from lung cancer pleural effusion within 5 generations were cultured to the logarithmic growth phase. When the confluence reached about 90%, the cells were digested with 0.25% trypsin, and complete culture medium was added to collect the cells. After centrifugation at room temperature, the supernatant was discarded, and the cell precipitate was resuspended with fresh complete culture medium. After counting, the cells were placed at room temperature for later use. The cells were inoculated into a 384-well plate at a density of 2000 cells/well with a volume of 40 μl/well. The wells at the outermost circle of the plate were not inoculated with cells, and instead, added with sterile water to reduce evaporation of the culture medium.
as §8, §9, §10, §11, §12

NCI-H1975 cells = assay: Cell viability IC50 (MTT), Gefitinib-resistant NCI-H1975 cells
Protocol: (§15) 1% sodium pyruvate was additionally added when culturing NCI-H1975 cells. All the cells were cultured in a constant temperature incubator containing 5% CO2 at 37° C.
(§16) (1) The cells were cultured to the logarithmic growth phase. […] After centrifugation at room temperature, the supernatant was discarded, and the cell precipitate was resuspended with fresh complete medium. After counting, the cells were placed at room temperature for later use.
(§17) (2) The cells were inoculated into a 96-well plate at a density of 4,000 cells/well with a volume of 100 μl/well. The wells at the outermost circle of the plate were not inoculated with cells, and instead, added with sterile water to reduce evaporation of the culture medium.
(§18) (3) After overnight culture of the cells, the medium was discarded, and a fresh medium containing different concentrations of compounds was added at 200 μl/well. The dilution method of the compound was as follows: first the compound with the highest concentration of 10 μM was prepared, and then the compound was diluted for 3 times in sequence. […] At the same time, a blank control group was set up, in which only an equal volume of culture medium was added without adding cells. Six replicate wells were set up for each group. The cells were placed in the incubator for further culture.
(§19) (4) After 72 hours, 20 μl of MTT solution (5 mg/ml) sterilized by filtration through a 0.22 m filter membrane was added to each well, and the cells were cultured in an incubator at 37° C. for another 4 hours.
(§20) (6) IC50 of the compounds for different cells was calculated based on the light absorption value of each group. Specifically, the absorbance value under treatment with different concentrations of compounds was first subtracted from the absorbance value of the blank well, and then the absorbance value of the 0 μM group was taken as 100% to calculate the cell survival rate after treatment with different concentrations of compounds. That is, survival rate=((ODexperimental well−ODblank control)/(ODnegative control−ODblank control))×100%. IC50 values were calculated based on the survival rate and concentration of the compound.

NCI-H1650 cells = assay: Cell viability IC50 (MTT), Gefitinib- and Osimertinib-resistant NCI-H1650 cells; conditions: Homo sapiens, NCI-H1650, 72 h, read-out: cell viability IC50
Protocol: as §15, §16, §17, §18, §19, §20

NCI-H1688 cells = assay: Cell viability IC50 (CCK-8), small cell lung cancer cell line H1688; assay type: cell-based; conditions: NCI-H1688; H1688, CCK-8
Protocol: (§13) Small cell lung cancer cell lines DMS114, NCI-H1688, NCI-H82, NCI-H146, and NCI-H446 cells were cultured in RPMI-1640 medium containing 10% fetal bovine serum and 1% penicillin-streptomycin. All the cells were cultured in a constant temperature incubator containing 5% CO2 at 37° C.
(§14) Small cell lung cancer is a highly heterogeneous malignant tumor, and its clinical treatment is mainly based on traditional chemotherapy (mainly platinum medicaments and etoposide). In order to study the anti-tumor activity of the compounds of the present disclosure in small cell lung cancer, the CCK-8 method was used to investigate the cell viability IC50 of compound 8 for five small cell lung cancer cell lines.

NCI-H146 cells = assay: Cell viability IC50 (CCK-8), small cell lung cancer cell line H146; assay type: cell-based; conditions: Homo sapiens, NCI-H146; H146, CCK-8
Protocol: as §13, §14

DMS114 cells = assay: Cell viability IC50 (CCK-8), small cell lung cancer cell line DMS114; assay type: cell-based; conditions: Homo sapiens, DMS-114; DMS114, CCK-8
Protocol: as §13, §14

NCI-H446 cells = assay: Cell viability IC50 (CCK-8), small cell lung cancer cell line H446; assay type: cell-based; conditions: Homo sapiens, NCI-H446; H446, CCK-8
Protocol: as §13, §14

NCI-H82 cells = assay: Cell viability IC50 (CCK-8), small cell lung cancer cell line H82; assay type: cell-based; conditions: Homo sapiens, NCI-H82; H82, CCK-8
Protocol: as §13, §14

PE043 primary cells = assay: Cell viability IC50 (CCK-8), primary cells PE043 from lung adenocarcinoma pleural effusion resistant to EGFR-TKI; conditions: read-out: cell viability IC50
PE039 primary cells = assay: Cell viability IC50 (CCK-8), primary cells PE039 from small cell lung cancer pleural effusion; assay type: cell-based; conditions: PE039, CCK-8
Protocol: as §1, §2, §3, §4, §5, §6, §7, §8, §9
(4) The light absorbance value at 450 nm was read using a microplate reader, and the IC50 was calculated according to the absorbance value. The calculation method was the same as above. […]

[1] = Homo sapiens, NCI-H1975, 72 h, read-out: cell viability IC50

Work on `COc1cc2c(Oc3ccc4[nH]c(C)cc4c3F)ccnc2cc1OCC1(N)CC1` [Anlotinib] yielded an IC50 (PE052 primary cells) of 9440 nM, an IC50 (PE062 primary cells) of 1500 nM and an IC50 (LT015 primary cells) of 2070 nM.
Molecule `CN1CCN(Cc2ccc(Nc3ncc(Cl)c(Nc4ccccc4S(=O)(=O)N(C)C)n3)cn2)CC1` [Compound 2, 2-((5-chloro-2-((6-((4-methylpiperazin-1-yl)methyl)pyridin-3-yl)amino)pyrimidin-4-yl)amino)-N,N-dimethylbenzenesulfonamide] has an IC50 (NCI-H1975 cells; [1]) of 86.4 nM and an IC50 (NCI-H1650 cells) of 466 nM.
Molecule `CN(C)CCN1Cc2ccc(Nc3ncc(Cl)c(Nc4ccccc4S(=O)(=O)N(C)C)n3)cc2C1` [Compound 3, 2-((5-chloro-2-((2-(2-(dimethylamino)ethyl)isodihydroindol-5-yl)amino)pyrimidin-4-yl)amino)-N,N-dimethylbenzenesulfonamide] has an IC50 (NCI-H1975 cells; [1]) of 28.3 nM and an IC50 (NCI-H1650 cells) of 37.8 nM.
`CN(C)C1CCN(Cc2ccc(Nc3ncc(Cl)c(Nc4ccccc4S(=O)(=O)N(C)C)n3)cc2)C1` (centres unmarked) [Compound 4, 2-((5-chloro-2-((4-((3-(dimethylamino)pyrrolidin-1-yl)methyl)phenyl)amino)pyrimidin-4-yl)amino)-N,N-dimethylbenzenesulfonamide] was tested, and the IC50 (NCI-H1975 cells; [1]) was 87.7 nM and the IC50 (NCI-H1650 cells) was 163 nM.
In the case of `CN1CCN(Cc2ccc(Nc3ncc(Cl)c(Nc4ccncc4S(=O)(=O)N(C)C)n3)cc2)CC1` [Compound 6, 4-((5-chloro-2-((4-((4-methylpiperazin-1-yl)methyl)phenyl)amino)pyrimidin-4-yl)amino)-N,N-dimethylpyridine-3-sulfonamide], the IC50 (NCI-H1975 cells; [1]) is reported as 47.7 nM and the IC50 (NCI-H1650 cells) is reported as 250 nM.
With `CN1C2CCC1CN(Cc1ccc(Nc3ncc(Cl)c(Nc4ccccc4S(=O)(=O)N(C)C)n3)cc1)C2` [Compound 9, 2-((5-chloro-2-((4-((8-methyl-3,8-diazabicyclo[3.2.1]octan-3-yl)methyl)phenyl)amino)pyrimidin-4-yl)amino)-N,N-dimethylbenzenesulfonamide] the IC50 (NCI-H1975 cells; [1]) was 25.3 nM and the IC50 (NCI-H1650 cells) was 170 nM.
`C[C@@H]1CN(Cc2ccc(Nc3ncc(Cl)c(Nc4ccccc4S(=O)(=O)N(C)C)n3)cc2)C[C@H](C)N1C` [Compound 10, 2-((5-chloro-2-((4-(((3R,5S)-3,4,5-trimethylpiperazin-1-yl)methyl)phenyl)amino)pyrimidin-4-yl)amino)-N,N-dimethylbenzenesulfonamide] was tested, and the IC50 (NCI-H1975 cells; [1]) was 21.5 nM and the IC50 (NCI-H1650 cells) was 136 nM.
`COCCN1CCc2cc(Nc3ncc(Cl)c(Nc4ccccc4S(=O)(=O)N(C)C)n3)ccc2C1` [Compound 11, 2-((5-chloro-2-((2-(2-methoxyethyl)-1,2,3,4-tetrahydroisoquinolin-6-yl)amino)pyrimidin-4-yl)amino)-N,N-dimethylbenzenesulfonamide formate] gave an IC50 (NCI-H1975 cells; [1]) of 29.1 nM and an IC50 (NCI-H1650 cells) of 32.5 nM.
In the case of `CNCCN1CCc2cc(Nc3ncc(Cl)c(Nc4ccccc4S(=O)(=O)N(C)C)n3)ccc2C1` [Compound 12, 2-((5-chloro-2-((2-(2-(methylamino)ethyl)-1,2,3,4-tetrahydroisoquinolin-6-yl)amino)pyrimidin-4-yl)amino)-N,N-dimethylbenzenesulfonamide], the IC50 (NCI-H1975 cells; [1]) is reported as 18.6 nM and the IC50 (NCI-H1650 cells) is reported as 75.2 nM.
`CN(C)CCN1CCc2cc(Nc3ncc(Cl)c(Nc4ccccc4S(=O)(=O)N(C)C)n3)ccc2C1` [Compound 13, 2-((5-chloro-2-((2-(2-(dimethylamino)ethyl)-1,2,3,4-tetrahydroisoquinolin-6-yl)amino)pyrimidin-4-yl)amino)-N,N-dimethylbenzenesulfonamide formate] was tested, and the IC50 (NCI-H1975 cells; [1]) was 19.8 nM and the IC50 (NCI-H1650 cells) was 67.3 nM.
Work on `CNS(=O)(=O)c1ccccc1Nc1nc(Nc2ccc(CN3C4CCC3CN(C)C4)cc2)ncc1Cl` [Compound 15, 2-((5-chloro-2-((4-((3-methyl-3,8-diazabicyclo[3.2.1]octan-8-yl)methyl)phenyl)amino)pyrimidin-4-yl)amino)-N-methylbenzenesulfonamide] yielded an IC50 (NCI-H1688 cells) of 9.16 nM, an IC50 (NCI-H146 cells) of 16.2 nM and an IC50 (DMS114 cells) of 8.53 nM. For the same molecule, the IC50 (NCI-H446 cells) was 6.54 nM.
Work on `C[C@@H](Oc1cc(-c2cnn(C3CCNCC3)c2)cnc1N)c1c(Cl)ccc(F)c1Cl` [Crizotinib] yielded an IC50 (PE062 primary cells) of 900 nM.
Work on `COc1cc([C@@H]2c3cc4c(cc3[C@@H](O[C@@H]3O[C@@H]5CO[C@@H](C)O[C@H]5[C@H](O)[C@H]3O)[C@H]3COC(=O)[C@H]23)OCO4)cc(OC)c1O` [Etoposide] yielded an IC50 (NCI-H1688 cells) of 739 nM, an IC50 (NCI-H146 cells) of 434 nM and an IC50 (DMS114 cells) of 917 nM. For the same molecule, the IC50 (NCI-H82 cells) was 545 nM, the IC50 (PE062 primary cells) was 770 nM and the IC50 (LT015 primary cells) was 48200 nM. For the same molecule, the IC50 (NCI-H446 cells) was 1060 nM.
Molecule `Nc1ccn([C@@H]2O[C@H](CO)[C@@H](O)C2(F)F)c(=O)n1` [Gemcitabine] has an IC50 (PE043 primary cells) of over 834000 nM.
For `C=CC(=O)Nc1cc(Nc2nccc(-c3cn(C)c4ccccc34)n2)c(OC)cc1N(C)CCN(C)C` [Osimertinib], the IC50 (PE052 primary cells) was 568 nM, the IC50 (PE039 primary cells) was 3990 nM and the IC50 (NCI-H1975 cells; Homo sapiens, NCI-H1975, 72 h, read-out: cell viability IC50, NCI-H1975 cells, 72 hours, MTT) was […]. The IC50 (NCI-H1975 cells; read-out: cell viability IC50, NCI-H1975 cells, 72 hours, MTT) was […], the IC50 (PE062 primary cells) was 2740 nM and the IC50 (NCI-H1650 cells) was 2750 nM. It also gave an IC50 (PE043 primary cells) of 3370 nM.
